# From ChEMBL document CHEMBL3612058, “Synthesis and biological evaluation of a new series of 2-amino-3-aroyl thiophene derivatives as agonist allosteric modulators of the A1 adenosine receptor. A position-dependent effect study” (Eur J Med Chem, 2015)
# Columns and labels:
# [1] = molecular target: T1, Adenosine receptor A1 (Homo sapiens) (UniProt P30542); test: Positive allosteric enhancement of human cloned adenosine A1 receptor expressed in CHO cells assessed as inhibition of forskolin-induced cAMP accumulation at 10 uM using [3H]-cAMP by scintillation counting relative to control; type: functional, cell-based
# T1 sequence (whole entry): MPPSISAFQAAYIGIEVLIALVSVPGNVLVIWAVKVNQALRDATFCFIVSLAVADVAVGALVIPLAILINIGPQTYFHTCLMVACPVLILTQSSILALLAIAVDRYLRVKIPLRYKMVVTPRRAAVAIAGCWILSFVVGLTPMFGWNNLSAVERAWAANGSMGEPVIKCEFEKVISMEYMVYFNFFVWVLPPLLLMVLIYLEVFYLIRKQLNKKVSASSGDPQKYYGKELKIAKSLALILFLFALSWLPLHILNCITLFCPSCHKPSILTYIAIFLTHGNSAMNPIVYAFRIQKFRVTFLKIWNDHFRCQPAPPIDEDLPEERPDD
# [2] = molecular target: T1, Adenosine receptor A1 (Homo sapiens); test: Positive allosteric enhancement of human cloned adenosine A1 receptor expressed in CHO cells assessed as inhibition of forskolin-induced cAMP accumulation at 100 nM using [3H]-cAMP by scintillation counting relative to control in presence of 1 pM of CCPA; type: functional, cell-based
# [3] = molecular target: T1, Adenosine receptor A1 (Homo sapiens); test: Ratio of PD81723 to compound for positive allosteric enhancement of human cloned adenosine A1 receptor expressed in CHO cells assessed as inhibition of forskolin-induced cAMP accumulation at 10 uM using [3H]-cAMP by scintillation counting; type: functional, cell-based
# [4] = molecular target: T1, Adenosine receptor A1 (Homo sapiens); test: Displacement of [3H]DPCPX from human adenosine A1 receptor expressed in CHO cells at 10 uM after 120 mins by scintillation counting; type: cell-based
# [5] = Displacement of [3H]-ZM241385 from human adenosine A2 receptor expressed in CHO cells at 10 uM after 120 mins by scintillation counting; type: cell-based
# [6] = molecular target: T2, Adenosine receptor A3 (Homo sapiens) (UniProt P0DMS8); test: Displacement of [3H]-MRE-3008-F20 from human adenosine A3 receptor expressed in CHO cells at 10 uM after 120 mins by scintillation counting; type: cell-based
# T2 sequence (whole entry): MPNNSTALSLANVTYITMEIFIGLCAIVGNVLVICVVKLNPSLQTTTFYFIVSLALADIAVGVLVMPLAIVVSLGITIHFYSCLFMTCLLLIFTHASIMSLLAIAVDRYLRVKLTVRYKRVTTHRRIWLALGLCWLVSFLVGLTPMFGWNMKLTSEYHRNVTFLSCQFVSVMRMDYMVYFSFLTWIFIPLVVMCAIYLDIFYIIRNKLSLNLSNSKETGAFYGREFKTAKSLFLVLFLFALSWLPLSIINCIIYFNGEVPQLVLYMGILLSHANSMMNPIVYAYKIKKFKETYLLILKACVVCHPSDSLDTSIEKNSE
# [7] = molecular target: T1, Adenosine receptor A1 (Homo sapiens); test: Binding affinity to human adenosine A1 receptor expressed in CHO cells assessed as fold Bmax shift of [3H]-CCPA at 10 uM after 90 mins by [3H]-CCPA binding assay relative to control; type: cell-based
# [8] = molecular target: T1, Adenosine receptor A1 (Homo sapiens); test: Binding affinity to human adenosine A1 receptor expressed in CHO cells assessed as fold Ki shift of CCPA at 10 uM after 90 mins by [3H]-CCPA displacement assay relative to control; type: cell-based
inhibition [1] [%],inhibition [2] [%],Ratio [3],inhibition [4] [%],inhibition [6] [%],fold change (FC) [7],fold change (FC) [8],Compound,inhibition [5] [%]
71,74,3,< 10,< 10,9.4,8.9,COc1ccc(Cc2c(-c3ccccc3)sc(N)c2C(=O)c2ccc(Cl)cc2)cc1,< 10
51,50,3,< 10,< 10,4.9,4.2,Nc1sc(-c2ccccc2)c(Cc2ccccc2)c1C(=O)c1ccc(Cl)cc1,< 10
69,67,3,< 10,< 10,7.2,8.4,Nc1sc(-c2ccc(Cl)cc2)c(Cc2ccccc2)c1C(=O)c1ccc(Cl)cc1,< 10
63,65,3,< 10,< 10,6.6,6.3,CSc1ccc(Cc2c(-c3ccccc3)sc(N)c2C(=O)c2ccc(Cl)cc2)cc1,< 10
55,51,3,< 10,< 10,5.6,4.9,COc1ccccc1Cc1c(-c2ccccc2)sc(N)c1C(=O)c1ccc(Cl)cc1,< 10
65,67,3,< 10,< 10,7.6,5.8,CC(C)Oc1ccc(Cc2c(-c3ccccc3)sc(N)c2C(=O)c2ccc(Cl)cc2)cc1,< 10
52,50,3,< 10,< 10,5.1,4.6,COc1ccc(Cc2c(-c3ccc(OC)cc3)sc(N)c2C(=O)c2ccc(Cl)cc2)cc1,< 10
25,24,–,< 10,< 10,1.8,1.6,Nc1sc(Cc2ccc(C(F)(F)F)cc2)c(-c2ccccc2)c1C(=O)c1ccc(Cl)cc1,< 10
56,58,3,< 10,< 10,5.6,5.1,Cc1ccc(Cc2c(-c3ccccc3)sc(N)c2C(=O)c2ccc(Cl)cc2)cc1,< 10
24,25,–,< 10,< 10,1.8,1.8,Nc1sc(Cc2ccc(OC(F)(F)F)cc2)c(-c2ccccc2)c1C(=O)c1ccc(Cl)cc1,< 10
68,69,3,< 10,< 10,8.2,6.6,Nc1sc(-c2ccccc2)c(Cc2ccc(OC(F)(F)F)cc2)c1C(=O)c1ccc(Cl)cc1,< 10
22,21,–,< 10,< 10,1.5,1.5,CCOc1ccc(Cc2sc(N)c(C(=O)c3ccc(Cl)cc3)c2-c2ccccc2)cc1,< 10
46,47,3,< 10,< 10,4.8,3.5,COc1ccc(-c2sc(N)c(C(=O)c3ccc(Cl)cc3)c2Cc2ccccc2)cc1,< 10
68,69,3,< 10,< 10,9.1,8,CCOc1ccc(Cc2c(-c3ccccc3)sc(N)c2C(=O)c2ccc(Cl)cc2)cc1,< 10
70,67,3,< 10,< 10,8.5,6.6,COc1ccc(Cc2c(-c3ccc(Cl)cc3)sc(N)c2C(=O)c2ccc(Cl)cc2)cc1,< 10
35,36,–,< 10,< 10,2.8,2,COc1ccc(Cc2sc(N)c(C(=O)c3ccc(Cl)cc3)c2-c2ccccc2)cc1,< 10
26,26,–,< 10,< 10,1.8,2,CC(C)Oc1ccc(Cc2sc(N)c(C(=O)c3ccc(Cl)cc3)c2-c2ccccc2)cc1,< 10

# Continued, molecule first:
Compound,inhibition [1] [%],inhibition [2] [%],Ratio [3],inhibition [4] [%],inhibition [6] [%],fold change (FC) [7],fold change (FC) [8],inhibition [5] [%]
COc1c(C)cc(Cc2c(-c3ccccc3)sc(N)c2C(=O)c2ccc(Cl)cc2)cc1C,59,61,3,< 10,< 10,6.6,4.6,< 10
COc1cccc(Cc2sc(N)c(C(=O)c3ccc(Cl)cc3)c2-c2ccccc2)c1,32,31,–,< 10,< 10,2.6,1.9,< 10
COc1ccc(Cc2sc(N)c(C(=O)c3ccc(Cl)cc3)c2-c2ccccc2)cc1C,31,30,–,< 10,< 10,2.7,2.4,< 10
COc1cc(Cc2c(-c3ccccc3)sc(N)c2C(=O)c2ccc(Cl)cc2)cc(OC)c1OC,47,43,3,< 10,< 10,4.3,3.8,< 10
Cc1ccc(Cc2c(-c3ccc(Cl)cc3)sc(N)c2C(=O)c2ccc(Cl)cc2)cc1,71,69,3,< 10,< 10,8.6,7.2,< 10
Cc1ccc(Cc2c(-c3ccc(F)cc3)sc(N)c2C(=O)c2ccc(Cl)cc2)cc1,59,62,3,< 10,< 10,6.5,5.6,< 10
Nc1sc(Cc2cccc3ccccc23)c(-c2ccccc2)c1C(=O)c1ccc(Cl)cc1,21,22,–,< 10,< 10,1.5,1.4,< 10
Nc1sc(-c2ccccc2)c(Cc2cccc3ccccc23)c1C(=O)c1ccc(Cl)cc1,57,58,–,< 10,< 10,6.1,4.3,< 10
Nc1sc(-c2ccc(Cl)cc2)c(Cc2ccc(F)cc2)c1C(=O)c1ccc(Cl)cc1,75,73,3,< 10,< 10,9.1,9.5,< 10
CC(C)(C)Cc1c(-c2ccc(Cl)cc2)sc(N)c1C(=O)c1ccc(Cl)cc1,–,–,–,–,–,5.8,4,–
Nc1sc(Cc2ccccc2)c(-c2ccccc2)c1C(=O)c1ccc(Cl)cc1,34,35,–,< 10,< 10,2.6,1.9,< 10
Nc1sc(-c2ccc(Cl)cc2)c(CN2CCN(c3ccc(Cl)cc3)CC2)c1C(=O)c1ccc(Cl)cc1,–,–,–,–,–,11.4,8.7,–
